Consider 16 molecules from patent publication US11339171B2, “MDM2 inhibitors” (Gan & Lee Pharmaceuticals, priority 2017, dated 2022).

In assay [1] the target is T1, MDM2 (Homo sapiens, UniProt Q00987).
T1 construct: made in house
Kind of assay: Inhibition test of MDM2-P53 (GST-MDM2, Biotin-P53, Anti-GST-Tb, SA-XL665). The class given is binding. The gist of the method:
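Compounds, serially diluted 5-fold (twelve concentrations), were shaken for 90 min at 25° C with a mix of GST-MDM2 (4 nM final), Biotin-P53, anti-GST-Tb and SA-XL665. Buffer: 1×PBS, 0.1% BSA, 5 mM DTT, 1 mM AEBSF; signal read on a microplate reader.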

The test system of assay [2] is human osteosarcoma cell line SJSA-1. Kind of assay: Inhibition of proliferation of human osteosarcoma cell line SJSA-1 (DAPI staining, In Cell Analyzer).
The mark [3] stands for this setting: Homo sapiens, SJSA-1, 72 h, read-out: IC50 (nM), inhibitory activity on proliferation of human osteosarcoma cell line SJSA-1, SJSA-1, incubated 72 h.

Like-named read-outs stand apart in the source and are kept apart here.

T1 sequence (Q00987 whole entry): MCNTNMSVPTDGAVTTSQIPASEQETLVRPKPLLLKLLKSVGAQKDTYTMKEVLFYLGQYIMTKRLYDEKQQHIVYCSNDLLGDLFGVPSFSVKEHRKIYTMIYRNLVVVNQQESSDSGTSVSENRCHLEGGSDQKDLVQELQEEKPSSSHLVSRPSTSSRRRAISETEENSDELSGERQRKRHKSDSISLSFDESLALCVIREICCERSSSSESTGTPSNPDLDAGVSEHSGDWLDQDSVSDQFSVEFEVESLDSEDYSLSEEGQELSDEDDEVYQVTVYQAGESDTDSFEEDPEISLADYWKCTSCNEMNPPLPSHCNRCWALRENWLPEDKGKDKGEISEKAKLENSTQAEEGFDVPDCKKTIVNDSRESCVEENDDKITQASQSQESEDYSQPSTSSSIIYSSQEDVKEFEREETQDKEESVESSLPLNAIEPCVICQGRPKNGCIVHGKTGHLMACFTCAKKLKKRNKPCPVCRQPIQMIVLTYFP

Turning to `COc1cnccc1-c1nc2c(n1C(C)C)[C@]1(C(=O)Nc3cc(Cl)ccc31)N(c1cc(Cl)ccc1C)C2=O` [Example R-10, (R)-6-chloro-5′-(5-chloro-2-methylphenyl)-3′-isopropyl-2′-(3-methoxypyridin-4-yl)-3′H-spiro[dihydroindole-3,4′-pyrrolo[3,4-d]imidazole]-2,6′(5′H)-dione], the IC50 in assay [1] amounted to 117 nM; in assay [2] (setting [3]), 2170 nM.

With `COc1cc(OC)c(-c2nc3c(n2C(C)C)[C@]2(C(=O)Nc4cc(Cl)ccc42)N(c2cc(Cl)ccc2C)C3=O)cn1` [Example R-11, (R)-6-chloro-5′-(5-chloro-2-methylphenyl)-2′-(4,6-dimethoxypyridin-3-yl)-3′-isopropyl-3′H-spiro[dihydroindole-3,4′-pyrrolo[3,4-d]imidazole]-2,6′(5′H)-dione], the IC50 amounted to 257 nM in assay [1] and 1510 nM in assay [2] (setting [3]).

With `COc1cc(C#N)ccc1-c1nc2c(n1C(C)C)[C@]1(C(=O)Nc3cc(Cl)ccc31)N(c1cc(Cl)ccc1C)C2=O` [Example R-12, (R)-4-(6-chloro-5′-(5-chloro-2-methylphenyl)-3′-isopropyl-2,6′-dioxo-5′,6′-dihydro-3′H-spiro[dihydroindole-3,4′-pyrrolo[3,4-d]imidazole]-2′-yl)-3-methoxybenzonitrile], the IC50 in assay [1] came to 368 nM; in assay [2] (setting [3]), 2440 nM.

As for `COc1ccc(C#N)cc1-c1nc2c(n1C(C)C)[C@]1(C(=O)Nc3cc(Cl)ccc31)N(c1cc(Cl)ccc1C)C2=O` [Example R-13, (R)-3-(6-chloro-5′-(5-chloro-2-methylphenyl)-3′-isopropyl-2,6′-dioxo-5′,6′-dihydro-3′H-spiro[dihydroindole-3,4′-pyrrolo[3,4-d]imidazole]-2′-yl)-4-methoxybenzonitrile], the IC50 is 121 nM in assay [1] and 1120 nM in assay [2] (setting [3]).

Consider `CCc1ccc(Cl)cc1N1C(=O)c2nc(-c3cnc(OC)nc3OC)n(C(C)C)c2[C@]12C(=O)Nc1cc(Cl)ccc12` [Example R-15, (R)-6-chloro-5′-(5-chloro-2-ethylphenyl)-2′-(2,4-dimethoxypyrimidin-5-yl)-3′-isopropyl-3′H-spiro[dihydroindole-3,4′-pyrrolo[3,4-d]imidazole]-2,6′(5′H)-dione], for which the IC50 in assay [1] worked out at 107 nM; in assay [2] (setting [3]), 840 nM.

For the molecule `COc1ncc(-c2nc3c(n2C(C)C)[C@]2(C(=O)Nc4cc(Cl)ccc42)N(c2cc(Cl)cn(C)c2=O)C3=O)c(OC)n1` [Example R-16, (R)-6-chloro-5′-(5-chloro-1-methyl-2-oxo-1,2-dihydropyridin-3-yl)-2′-(2,4-dimethoxypyrimidin-5-yl)-3′-isopropyl-3′H-spiro[dihydroindole-3,4′-pyrrolo[3,4-d]imidazole]-2,6′(5′H)-dione], the results for the IC50 in assay [1] and in assay [2] (setting [3]) were 570 nM and 20100 nM, respectively.

Take `COc1ncc(-c2nc3c(n2C(C)C)[C@]2(C(=O)Nc4cc(Cl)ccc42)N(c2cc(Cl)ccc2OC)C3=O)c(OC)n1` [Example R-17, (R)-6-chloro-5′-(5-chloro-2-methoxyphenyl)-2′-(2,4-dimethoxypyrimidin-5-yl)-3′-isopropyl-3′H-spiro[dihydroindole-3,4′-pyrrolo[3,4-d]imidazole]-2,6′(5′H)-dione]: the IC50 in assay [1] turned out to be 49.4 nM; in assay [2] (setting [3]), 1310 nM; in assay [2] (read-out: IC50 (nM), inhibitory activity on proliferation of human osteosarcoma cell line SJSA-1, SJSA-1, incubated 72 h), 2440 nM.

Take `COc1ccncc1-c1nc2c(n1C(C)C)[C@]1(C(=O)Nc3cc(Cl)ccc31)N(c1cc(Cl)ccc1C)C2=O` [Example R-18, (R)-6-chloro-5′-(5-chloro-2-methylphenyl)-3′-isopropyl-2′-(4-methoxypyridin-3-yl)-3′H-spiro[dihydroindole-3,4′-pyrrolo[3,4-d]imidazole]-2,6′(5′H)-dione]: the IC50 was found to be 158 nM in assay [1] and 1620 nM in assay [2] (setting [3]).

In the case of `COc1ncc(-c2nc3c(n2C(C)C)[C@]2(C(=O)Nc4cc(Cl)ccc42)N(c2ccc(C)c(Cl)c2)C3=O)c(OC)n1` [Example R-20, (R)-6-chloro-5′-(3-chloro-4-methylphenyl)-2′-(2,4-dimethoxypyrimidin-5-yl)-3′-isopropyl-3′H-spiro[dihydroindole-3,4′-pyrrolo[3,4-d]imidazole]-2,6′(5′H)-dione], the IC50 in assay [1] worked out at 256 nM; in assay [2] (setting [3]), 4010 nM.

As to `CNC(=O)c1ccc(OC)c(-c2nc3c(n2C(C)C)[C@]2(C(=O)Nc4cc(Cl)ccc42)N(c2cc(Cl)ccc2C)C3=O)c1` [Example R-21, (R)-3-(6-chloro-5′-(5-chloro-2-methylphenyl)-3′-isopropyl-2,6′-dioxo-5′,6′-dihydro-3′H-spiro[dihydroindole-3,4′-pyrrolo[3,4-d]imidazole]-2′-yl)-4-methoxy-N-methylbenzamide], the IC50 in assay [1] was 223 nM; in assay [2] (setting [3]) it was 5230 nM.

For the molecule `COc1ccc(C(=O)N(C)C)cc1-c1nc2c(n1C(C)C)[C@]1(C(=O)Nc3cc(Cl)ccc31)N(c1cc(Cl)ccc1C)C2=O` [Example R-22, (R)-3-(6-chloro-5′-(5-chloro-2-methylphenyl)-3′-isopropyl-2,6′-dioxo-5′,6′-dihydro-3′H-spiro[dihydroindole-3,4′-pyrrolo[3,4-d]imidazole]-2′-yl)-4-methoxy-N,N-dimethylbenzamide], the IC50 worked out at 627 nM in assay [1] and 6950 nM in assay [2] (setting [3]).

On to `COc1cc(N(C)C)ccc1-c1nc2c(n1C(C)C)[C@]1(C(=O)Nc3cc(Cl)ccc31)N(c1cc(Cl)ccc1C)C2=O` [Example R-23, (R)-6-chloro-5′-(5-chloro-2-methylphenyl)-2′-(4-(dimethylamino)-2-methoxyphenyl)-3′-isopropyl-3′H-spiro[dihydroindole-3,4′-pyrrolo[3,4-d]imidazole]-2,6′(5′H)-dione], for which the IC50 was found to be 175 nM in assay [1] and 354 nM in assay [2] (setting [3]).

For `COc1cc(C)ccc1-c1nc2c(n1C(C)C)[C@]1(C(=O)Nc3cc(Cl)ccc31)N(c1cc(Cl)ccc1C)C2=O` [Example R-24, (R)-6-chloro-5′-(5-chloro-2-methylphenyl)-3′-isopropyl-2′-(2-methoxy-4-methylphenyl)-3′H-spiro[dihydroindole-3,4′-pyrrolo[3,4-d]imidazole]-2,6′(5′H)-dione], the values for the IC50 in assay [1] and in assay [2] (setting [3]) were 392 nM and 872 nM, respectively.

On to `CNc1ccc(-c2nc3c(n2C(C)C)[C@]2(C(=O)Nc4cc(Cl)ccc42)N(c2cc(Cl)ccc2C)C3=O)c(OC)c1` [Example R-25, (R)-6-chloro-5′-(5-chloro-2-methylphenyl)-3′-isopropyl-2′-(2-methoxy-4-(methylamine)phenyl)-3′H-spiro[dihydroindole-3,4′-pyrrolo[3,4-d]imidazole]-2,6′(5′H)-dione], for which the values for the IC50 in assay [1] and in assay [2] (setting [3]) were 51.9 nM and 265 nM, respectively.

As for `CCn1c(-c2cnc(OC)nc2OC)nc2c1[C@]1(C(=O)Nc3cc(Cl)ccc31)N(c1cc(Cl)ccc1C)C2=O` [Example R-26, (R)-6-chloro-5′-(5-chloro-2-methylphenyl)-2′-(2,4-dimethoxypyrimidin-5-yl)-3′-ethyl-3′H-spiro[dihydroindole-3,4′-pyrrolo[3,4-d]imidazole]-2,6′(5′H)-dione], the IC50 in assay [1] is 236 nM; in assay [2] (setting [3]) it was 3650 nM.

Consider `COc1ccc(C(N)=O)cc1-c1nc2c(n1C(C)C)[C@]1(C(=O)Nc3cc(Cl)ccc31)N(c1cc(Cl)ccc1C)C2=O` [Example R-29, (R)-3-(6-chloro-5′-(5-chloro-2-methylphenyl)-3′-isopropyl-2,6′-dioxo-5′,6′-dihydro-3′H-spiro[dihydroindole-3,4′-pyrrolo[3,4-d]imidazole]-2′-yl)-4-methoxybenzamide], for which the IC50 in assay [1] is 93.6 nM; in assay [2] (setting [3]) it was 10900 nM.
